In brackets after ≈: the same amount, converted by molar mass. Where two headings read alike, the source gives them in different places.
Columns and labels:
[1] = test system: Gram-negative and Gram-positive bacteria; experiment: Antibacterial activity (statement); conditions: for example, Streptococcus hemolyticus, Klebsiella, Salmonella Sp., Serratia marcescens, Pasteurella multocida, Hemophilus Sp., Proteus morgani, Proteus rettgeri
Solubilities = format: physicochemical
Serratia marcescens = experiment: Antibacterial activity, standard agar dilution test; format: cell-based; conditions: 16 h, 2 strains, Brain Heart Infusion, 37° C., 16-18 hours, read-out: Inhibition
Experimental: (§1) The above antibacterial spectrum was obtained by a standard agar dilution test with the following media and conditions:
(§2) Difco Brain Heart Infusion Medium was used for all test bacteria except P. multocida and Hemophilus species which were grown in Difco Blood Agar Base with 5% defibrinated rabbit blood. All were grown aerobically at 37° C. (except Hemophilus species, grown anaerobically) 16-18 hours. Inocula were grown overnite (16-18 hours) at 37° C. and used to seed agar at the rate of 0.025 ml. of 10^^-3 dilution (approximately 2500 to 25,000 bacteria per drop of inoculum).

Diplococcus pneumoniae = experiment: as above; format: cell-based; conditions: Streptococcus pneumoniae, 16 h, 1 strain, Brain Heart Infusion, 37° C., 16-18 hours, read-out: Inhibition
Experimental: as §1, §2

Proteus morgani = experiment: as above; format: cell-based; conditions: 16 h, 3 strains, Brain Heart Infusion, 37° C., 16-18 hours, read-out: Inhibition
Experimental: as §1, §2

[2] = test system: Streptococcus hemolyticus; experiment: as above; format: cell-based
Experimental: as §1, §2

Proteus mirabilis [3] = experiment: as above; format: cell-based; conditions: 16 h, 3 strains, Brain Heart Infusion, 37° C., 16-18 hours, read-out: Inhibition
Experimental: as §1, §2

Pasteurella multocida = experiment: as above; format: cell-based; conditions: 16 h, 1 strain, Blood Agar Base with 5% defibrinated rabbit blood, 37° C., 16-18 hours, read-out: Inhibition
Experimental: as §1, §2

Pseudomonas aeruginosa = experiment: as above; format: cell-based; conditions: 16 h, 5 strains, Brain Heart Infusion, 37° C., 16-18 hours, read-out: Inhibition
Experimental: as §1, §2

Staphylococcus aureus = experiment: as above; format: cell-based; conditions: 16 h, 1 strain, Brain Heart Infusion, 37° C., 16-18 hours, read-out: Inhibition
Experimental: as §1, §2

Proteus vulgaris [4] = experiment: as above; format: cell-based; conditions: 16 h, 3 strains, Brain Heart Infusion, 37° C., 16-18 hours, read-out: Inhibition
Experimental: as §1, §2

Herpes simplex virus = experiment: Antiviral activity in mice inoculated intravenously with Herpes simplex virus; format: in vivo; conditions: 400, 200 and 100 mg./kg./dose subcutaneously, four times daily, days 0-4; 40 LD50 virus intravenously
Experimental: The following is an example of the antiviral activity of antibiotic U-44,590. The antibiotic is administered subcutaneously to mice which are inoculated intravenously with Herpes simplex virus. Treatment is initiated 2 hours prior to viral infection and is followed by treatment four times daily for five consecutive days. A detailed account of the materials and methods and results are as follows:
Male mice, weighing approximately 20 gm. each, are divided into 4 groups of 20. Group 1 is treated with saline, Group 2 with 400 mg./kg./dose (mkd) U-44,590, Group 3 with 200 mkd U-44,590, and Group 4 with 100 mkd U-44,590. The antibiotic is dissolved in saline and administered subcutaneously in the nape of the neck at 8 a.m., 12 noon, 4 p.m., and 8 p.m. on days 0, 1, 2, 3, and 4. Herpes virus at 10^^-1.5 dilution, 0.05 ml/mouse, equivalent to a viral dose of 40 LD50 s, is inoculated into the tail vein at 10 a.m. on day 0. Paralysis and death are recorded daily.
Hind leg paralysis usually preceded death by 1-2 days. All mice died that became paralyzed. Death pattern of the 4 groups, as shown in the curves which follow, illustrates the dose response obtained.

Escherichia coli [5] = experiment: Antibacterial activity (statement)
Salmonella flexneri = experiment: In vivo testing in infected mice; conditions: IP challenge 40 LD50, read-out: Activity (CD50)
Excerpt: (§3) In vivo testing of U-44,590 in mice infected with selected microorganisms is as follows: […]

Escherichia coli [6] = experiment: In vivo testing in infected mice; conditions: IP challenge 79 LD50, read-out: Activity (CD50)
Excerpt: as §3

[7] = test system: Streptococcus hemolyticus; experiment: In vivo testing in infected mice; conditions: Streptococcus pyogenes, Oral route, IP challenge 100 LD50, read-out: Activity (CD50)
Excerpt: as §3

Proteus mirabilis [8] = experiment: In vivo testing in infected mice; conditions: IP challenge 1259 LD50, read-out: Activity (CD50)
Excerpt: as §3

Proteus vulgaris [9] = experiment: In vivo testing in infected mice
Excerpt: as §3

Herpes virus = experiment: Activity against DNA viruses (statement); conditions: for example, the Herpes virus

Q: Which results are given for CN1CN([C@H]2C[C@H](O)[C@@H](CO)O2)C(=O)NC1=O [U-44,590, 1(2-deoxy-β-D-erythro-pentofuranosyl)-5,6-dihydro-5-methyl-s-triazine-2,4(1H,3H)-dione]?
A: Effect on growth of bacteria [1]: adversely affecting the growth of Gram-negative and Gram-positive bacteria; Solubility (Solubilities; in Me2 CO, EtOAc, hydrocarbons, CH2 Cl2 and CHCl3): relatively insoluble; Solubility (Solubilities; in water, and lower alcohols, for example, methanol and ethanol): Highly soluble; MIC (Serratia marcescens): 125 µg/mL (≈ 510 µM); MIC (Diplococcus pneumoniae): 500 µg/mL (≈ 2040 µM); MIC (Proteus morgani): 62.5 to 250 µg/mL (≈ 255 to 1020 µM); Activity against Streptococcus hemolyticus [2]: active against Streptococcus hemolyticus; MIC ([2]; Streptococcus pyogenes, 16 h, Streptococcus hemolyticus, 1 strain, Brain Heart Infusion, 37° C., 16-18 hours, read-out: Inhibition): 15.2 µg/mL (≈ 62 µM); MIC (Proteus mirabilis [3]): > 1000 µg/mL; MIC (Pasteurella multocida): 125 µg/mL (≈ 510 µM); MIC (Pseudomonas aeruginosa): > 1000 µg/mL; MIC (Staphylococcus aureus): > 1000 µg/mL; MIC (Proteus vulgaris [4]): > 1000 µg/mL; Death pattern, statistical analysis of the results at day 11 (Herpes simplex virus): all 3 treated groups are significantly different from the control group (1); Activity against Escherichia coli (Escherichia coli [5]): active against Escherichia coil; ED50 (Salmonella flexneri; Oral route): 62.5 mg/kg; ED50 (Salmonella flexneri; sc, Subcutaneous route): 38 mg/kg; ED50 (Escherichia coli [6]; Oral route): 218 mg/kg; ED50 (Escherichia coli [6]; sc, Subcutaneous route): 141 mg/kg; ED50 [7]: > 160 mg/kg; ED50 (Proteus mirabilis [8]; Oral route): 101 mg/kg; ED50 (Proteus mirabilis [8]; sc, Subcutaneous route): 152 mg/kg; ED50 (Proteus vulgaris [9]; po, IP challenge 79 LD50, read-out: Activity (CD50)): < 62.5 mg/kg; ED50 (Proteus vulgaris [9]; po, IP challenge 150 LD50 (line without organism name below Proteus vulgaris), read-out: Activity (CD50)): ~30 mg/kg; ED50 (Proteus vulgaris [9]; sc, Subcutaneous route, IP challenge 79 LD50, read-out: Activity (CD50)): 100 mg/kg; Activity against DNA viruses (Herpes virus): active against DNA viruses
